The test deals with T1, HCV polymerase (Hepatitis C virus genotype 1b, UniProt P26663).
T1 construct: a region encoding NS5B (J Virol 1991 March, 65(3), 1105-13, 544 amino acids after deletion of 47 amino acids on the C-terminal); 6xHis (C); made in house; host or cells: Escherichia coli
As to the kind of experiment: biochemical. Also noted: species or system HCV BK strain. The procedure, abridged:
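Recombinant HCV BK-strain NS5B (C-terminal 47 aa deleted, His6-tagged, E. coli), 0.5 μg/ml, run with 5 μg/ml in vitro-transcribed RNA template (polyU/3′X), ATP/GTP/CTP 50 μM, UTP 2 μM plus [3H]UTP, pH 7.5, 25° C, 90 min. TCA-precipitated RNA counted by scintillation; IC50 from activity with vs without compound.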

Where a name gives a salt, the structure may show the parent alone.

T1 sequence (P26663 2420-2963): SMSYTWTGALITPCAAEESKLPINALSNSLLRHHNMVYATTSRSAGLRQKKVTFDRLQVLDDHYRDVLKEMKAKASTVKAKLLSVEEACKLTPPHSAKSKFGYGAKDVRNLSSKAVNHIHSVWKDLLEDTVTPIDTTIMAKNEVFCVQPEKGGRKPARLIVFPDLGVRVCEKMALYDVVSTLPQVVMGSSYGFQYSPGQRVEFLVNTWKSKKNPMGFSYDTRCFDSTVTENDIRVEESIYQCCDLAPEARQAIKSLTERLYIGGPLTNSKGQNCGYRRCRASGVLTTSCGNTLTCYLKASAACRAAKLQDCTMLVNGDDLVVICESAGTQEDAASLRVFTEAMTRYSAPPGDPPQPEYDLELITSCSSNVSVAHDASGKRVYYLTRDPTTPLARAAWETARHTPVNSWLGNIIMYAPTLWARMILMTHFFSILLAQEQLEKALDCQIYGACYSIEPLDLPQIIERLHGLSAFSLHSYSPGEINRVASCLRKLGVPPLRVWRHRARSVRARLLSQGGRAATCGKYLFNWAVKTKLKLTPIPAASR

For orientation: IC50 means the concentration that gives 50% inhibition. A higher IC50 goes with a need for much substance. In turn, `O=C(O)c1ccc2c(C3CCCCC3)c3n(c2c1)CCOc1c-3cccc1N(CC(=O)N1CCOCC1)CC(=O)N1CCOCC1` [Example 2-359, 4-{bis[2-(morpholin-4-yl)-2-oxoethyl]amino}-12-cyclohexyl-6,7-dihydro-5-oxa-7a-azadibenzo[a,e]azulene-9-carboxylic acid] showed a 50% inhibitory concentration (IC50) of under 100 nM. The compound `COc1ccc2c(c1)N(CCOC(C)C)CCn1c-2c(C2CCCCC2)c2ccc(C(=O)NC3(C(=O)Nc4ccc(/C=C/C(=O)O)cc4)CCC3)cc21` [Example 1-482, (E)-3-{4-[(1-{[13-cyclohexyl-5-(2-isopropoxyethyl)-3-methoxy-6,7-dihydro-5H-benzo[5,6][1,4]diazepino[7,1-a]indole-10-carbonyl]amino}cyclobutanecarbonyl)amino]phenyl}acrylic acid] registered a concentration for half-maximal inhibition (IC50) of under 100 nM.

Regarding `CCN(CCCN1CCn2c(c(C3CCCCC3)c3ccc(C(=O)O)cc32)-c2ccc(C)cc21)CCOC` [Example 1-511, 13-cyclohexyl-5-{3-[N-ethyl-N-(2-methoxyethyl)amino]propyl}-3-methyl-6,7-dihydro-5H-benzo[5,6][1,4]diazepino[7,1-a]indole-10-carboxylic acid dihydrochloride], the IC50 is under 100 nM. Under `COc1ccc2c(c1)OCCn1c-2c(C2CCCCC2)c2ccc(C(=O)NC3(c4nc5cc(C(C)(C)O)c(OC)cc5[nH]4)CCC3)cc21` [Example 2-447, N-{1-[5-(1-hydroxy-1-methylethyl)-6-methoxy-1H-benzimidazol-2-yl]cyclobutyl}-12-cyclohexyl-3-methoxy-6,7-dihydro-5-oxa-7a-azadibenzo[a,e]azulene-9-carboxamide] stands under 100 nM; under `CCN(CCCN1CCn2c(c(C3CCCCC3)c3ccc(C(=O)O)cc32)-c2ccc(Cl)cc21)C(C)C` [Example 1-403, 3-chloro-13-cyclohexyl-5-[3-(N-ethyl-N-isopropylamino)propyl]-6,7-dihydro-5H-benzo[5,6][1,4]diazepino[7,1-a]indole-10-carboxylic acid dihydrochloride], under 100 nM.

Regarding `COC[C@](C)(NC(=O)c1ccc2c(C3CCCCC3)c3n(c2c1)CCOc1cc(OC)ccc1-3)C(=O)O` [Example 2-532, (S)-2-[(12-cyclohexyl-3-methoxy-6,7-dihydro-5-oxa-7a-azadibenzo[a,e]azulene-9-carbonyl)amino]-3-methoxy-2-methylpropionic acid], the IC50 is under 100 nM.

`CCN1CCCC(CN2CCn3c(c(C4CCCCC4)c4ccc(C(=O)O)cc43)-c3ccccc32)C1` (stereo not shown) [Example 1-153, 13-cyclohexyl-5-(1-ethylpiperidin-3-ylmethyl)-6,7-dihydro-5H-benzo[5,6][1,4]diazepino[7,1-a]indole-10-carboxylic acid dihydrochloride]: the IC50 was under 100 nM. For `COC(=O)Nc1ccc(C[C@H](NC(=O)c2ccc3c(C4CCCCC4)c4n(c3c2)CCOc2cc(OC)ccc2-4)c2csc(C)n2)cc1` [Example 2-415, methyl (4-[(S)-2-[(12-cyclohexyl-3-methoxy-6,7-dihydro-5-oxa-7a-azadibenzo[a,e]azulene-9-carbonyl)amino]-2-(2-methylthiazol-4-yl)ethyl]phenyl}carbamate] the value was under 100 nM.

Take `Cc1ccc2c(c1)N(C)CCn1c-2c(C2CCCCC2)c2ccc(C(=O)O)cc21` [Example 1-574, 13-cyclohexyl-3,5-dimethyl-6,7-dihydro-5H-benzo[5,6][1,4]diazepino[7,1-a]indole-10-carboxylic acid]: the half-inhibitory concentration (IC50) is under 100 nM. In turn, `CCOc1ccc2c(c1)OCCn1c-2c(C2CCCCC2)c2ccc(C(=O)NC3(C(=O)Nc4ccc(/C=C/C(=O)O)cc4OC)CCC3)cc21` [Example 2-552, (E)-3-[4-({1-[(12-cyclohexyl-3-ethoxy-6,7-dihydro-5-oxa-7a-azadibenzo[a,e]azulene-9-carbonyl)amino]cyclobutanecarbonyl}amino)-3-methoxyphenyl]acrylic acid] came in with an IC50 of under 100 nM. Consider `CCOC1CCCN(CCN2CCn3c(c(C4CCCCC4)c4ccc(C(=O)O)cc43)-c3ccc(Cl)cc32)C1` (stereo not shown) [Example 1-326, 3-chloro-13-cyclohexyl-5-[2-(3-ethoxypiperidin-1-yl)ethyl]-6,7-dihydro-5H-benzo[5,6][1,4]diazepino[7,1-a]indole-10-carboxylic acid monohydrochloride], for which the concentration for half-maximal inhibition (IC50) is under 100 nM. `COC(=O)N1CCCC(Oc2ccc3c(c2)OCCn2c-3c(C3CCCCC3)c3ccc(C(=O)O)cc32)C1` (stereo not shown) [Example 2-24, 12-cyclohexyl-3-(1-methoxycarbonylpiperidin-3-yloxy)-6,7-dihydro-5-oxa-7a-azadibenzo[a,e]azulene-9-carboxylic acid] came in with an IC50 of under 100 nM. For `COC[C@H]1CCCN(CCN2CCn3c(c(C4CCCCC4)c4ccc(C(=O)O)cc43)-c3ccc(C)cc32)C1` [Example 1-417, 13-cyclohexyl-5-[2-((S)-3-methoxymethylpiperidin-1-yl)ethyl]-3-methyl-6,7-dihydro-5H-benzo[5,6][1,4]diazepino[7,1-a]indole-10-carboxylic acid dihydrochloride] the value was under 100 nM. Under `Cc1ccc2c(c1)N(CCC1CCCN(C)C1)CCn1c-2c(C2CCCCC2)c2ccc(C(=O)O)cc21` (stereo not shown) [Example 1-274, 13-cyclohexyl-3-methyl-5-[2-(1-methylpiperidin-3-yl)ethyl]-6,7-dihydro-5H-benzo[5,6][1,4]diazepino[7,1-a]indole-10-carboxylic acid dihydrochloride] stands under 100 nM; under `O=C(O)c1ccc2c(C3CCCCC3)c3n(c2c1)CCN(Cc1ccccc1)c1ccccc1-3` [Example 1-22, 5-benzyl-13-cyclohexyl-6,7-dihydro-5H-benzo[5,6][1,4]diazepino[7,1-a]indole-10-carboxylic acid], under 100 nM; under `Cc1ccc2c(c1)N(CCCN(C)C)CCn1c-2c(C2CCCCC2)c2ccc(C(=O)O)cc21` [Example 1-301, 13-cyclohexyl-5-(3-dimethylaminopropyl)-3-methyl-6,7-dihydro-5H-benzo[5,6][1,4]diazepino[7,1-a]indole-10-carboxylic acid dihydrochloride], under 100 nM. Under `CSc1ccc2c(c1)N(C)CCn1c-2c(C2CCCCC2)c2ccc(C(=O)NC3(C(=O)Nc4ccc(/C=C/C(=O)O)cc4)CCC3)cc21` [Example 1-450, (E)-3-[4-({1-[(13-cyclohexyl-5-methyl-3-methylsulfanyl-6,7-dihydro-5H-benzo[5,6][1,4]diazepino[7,1-a]indole-10-carbonyl)amino]cyclobutanecarbonyl}amino)phenyl]acrylic acid] stands under 100 nM; under `O=C(O)c1ccc(NC(=O)C2(NC(=O)c3ccc4c(C5CCCCC5)c5n(c4c3)CCOc3ccccc3-5)CCC2)nc1` [Example 2-54, 6-({1-[(12-cyclohexyl-6,7-dihydro-5-oxa-7a-azadibenzo[a,e]azulene-9-carbonyl)amino]cyclobutanecarbonyl}amino)nicotinic acid], under 100 nM. The compound `O=C(O)c1ccc2c(C3CCCCC3)c3n(c2c1)CCN(CCCN1CCCCC1)c1ccccc1-3` [Example 1-111, 13-cyclohexyl-5-[3-(piperidin-1-yl)propyl]-6,7-dihydro-5H-benzo[5,6][1,4]diazepino[7,1-a]indole-10-carboxylic acid dihydrochloride] yielded an IC50 of under 100 nM.

Source of the values: US20070049593A1 (priority 2004, published 2007).
